Reference: patent publication US6521211B1, “Methods of imaging and treatment with targeted compositions” (Bristol-Myers Squibb Medical Imaging, Inc., priority 1995, dated 2003)

Tested on: β-galactosidase gene (pSV β-gal)
Assay: in vivo delivery of genetic material in rats, X-gal staining, with or without ultrasound
Design: species or system Sprague Dawley rats
Details: mixed with plasmid pSV β-gal, tail vein, 48 hours
Procedure: Plasmid pSV β-gal (Promega, Madison, Wiss.), which contains the β-galactosidase gene, and the cationic lipid compound prepared in Example 3 were combined by mixing. The resulting mixture was injected into each of three Sprague Dawley rats (rats (A), (B) and (C)) via the tail vein. Rat (A) was not subjected to ultrasound. Ultrasonic energy was applied to the inside of the hind leg during injection for each of rats (B) and (C). After 48 hours, the rats were euthanized and the tissues were removed. The tissues were fixed for 72 hours in 2% formalin, sliced thin and placed in an X-gal solution. After 16 hours at 37° C., the tissues were inspected.

Structure (SMILES): CCCCCCCCCCCCCCCCOC(=O)CN(CC[N+](C)(CC(=O)NCC[N+](C)(C)C)CC(=O)OCCCCCCCCCCCCCCCC)CC(=O)O (stereo not drawn) [Example 3, N,N′-bis (hexadecyloxycarbonylmethylene)-N-(β-N,N,N-trimethylammoniumethyl-aminocarbonylmethylene) -N-methyl-N′-(carboxymethylene)ethylenediamine diiodide]
- X-gal staining of tissue (transfection) (rat (A), no ultrasound): blue color which is indicative of general transfection
- X-gal staining of tissue (transfection) (rats (B) and (C), ultrasonic energy to inside of hind leg during injection): blue color only at the site where ultrasound energy was applied
